Holding throughout (assay type): cell-based
Test [1] concerns nod genes in Bradyrhizobium japonicum strain USDA31. In words: nod gene induction, β-galactosidase assay, strain USDA31 (GG1). As to the method: (§1) Bacteria were grown in yeast extract mannitol (YEM) medium (mannitol 10.0 g, K2HPO4 0.5 g, MgSO4.7H2O 0.2 g, NaCl 0.1 g, and yeast extract 0.4 g dissolved in 1000 mL of dd H2O). In order to ensure the maintenance of the strains, tetracycline was added to the bacterial cultures at a concentration of 20 mg 1^−1. One hundred mL cultures of each strain, in 250 mL flasks, were shaken at 150 rev min^−1 at 30° C. for 3-5 days and then subcultured into 400 mL of fresh medium in 1000 mL flasks. The cultures were incubated until the OD620 reached 0.2-0.3. The cultures were then divided into 5 mL tubes (sterilized).
(§2) Stock solutions of various inducers: genistein, salicylic acid and acetylsalicylic acid made in methanol and linolenic, linoleic, and jasmonic acid and methyl jasmonate were made in ethanol, and an appropriate amount of these inducers was added into the tubes before addition of bacterial culture. In the tubes, the final concentration of all the inducers was maintained as 5, 10, 25, 50 and 100 μM. Tubes were collected after 18 h of incubation and stored at −20° C. until the β-galactosidase activity was measured. Genistein (4′,5,7, trihydroxyisoflavone, purity 98%,), linolenic acid (9,12,15-Octadecatrienoic acid, purity 99%), linoleic acid (cis-9, cis-12-Octadecadienoic acid, purity 99%), jasmonic acid (±Jasmonic acid, C12H18O3) and salicylic acid (2-hydroxybenzoic acid, purity 99.0%) were obtained from Sigma, while acetylsalicylic acid (C9H8O4, 99% purity) was obtained from Acros and methyl jasmonate (95% purity) was obtained from Aldrich Chemical Company, Inc.
(§3) β-galactosidase is an enzyme which hydrolyzes β-D-galactosides. The activity of this enzyme can easily be measured with colorless substrates, which upon hydrolysis produce colored products. O-nitrophenyl-β-galactoside (ONPG) is a colorless compound and is converted to galactose and O-nitrophenol in the presence of β-galactosidase. The O-nitrophenol is yellow and can be measured by its absorption at 420 nm. In the present study, nod gene expression was indirectly measured by β-galactosidase activity following the method of Miller (1972) as modified by Stachel et al, (1985). Briefly, 0.5 mL culture was mixed with 2×Z buffer (Na2HPO4.7H2O, 16.1 g, NaH2PO4.H2O, 5.5 g, KCl 0.75 g, MgSO4.7H2O 0.246 g, β-mercaptoethanol 2.7 g, pH 7.0 dissolved in 500 mL water) and 40 μL toluene and vortexed for 10 seconds. The culture was then incubated in a water bath at 37° C. for 30 minutes and then 0.2 mL of O-nitrophenyl β-D-galactopyranoside (ONPG) was added at a concentration of 4 mg mL^−1. The cultures were incubated again in the water bath until the color of the culture changed. The reaction time was recorded and the reaction was stopped with 1M Na2CO3. After centrifugation at 10,000 rpm for 4 minutes, spectrophotometric reading at OD420 and OD600 were taken and the β-galactosidase activity was measured (β-galactosidase activity=OD420*1000/OD600*T*V, where T is the reaction time and V is the volume of the bacterial culture used for enzyme assay).
(§4) The effect of 0-100 μM concentrations of each of acetylsalicylic acid, salicylic acid, jasmonic acid, methyl jasmonate, and genistein, on induction of nod gene expression in Bradyrhizobium japonicum strains USDA31, USDA76, USDA121, and USDA3, was evaluated in accordance with the β-galactosidase assay of Experiment 1 in Example 1 above.

The subject of test [2] is nod genes in Bradyrhizobium japonicum strain USDA76. The test can be described thus: nod gene induction, β-galactosidase assay, strain USDA 76 (GG2). As to conditions: control 411.8 ± 26.8. As to the method:
as §1, §2, §3, §4

For test [3], the system named is nod genes in Bradyrhizobium japonicum strain USDA121. In words: nod gene induction, β-galactosidase assay, strain USDA121 (GG3). As to conditions: control 476.8 ± 86.6. As to the method: as §1, §2, §3, §4
Test [4] deals with nod genes in Bradyrhizobium japonicum strain USDA3. Particulars: for nod gene induction (β-galactosidase activity): USDA3 (GG4), control 362 ± 25; for expression of nod genes (β-galactosidase assay), in words: FIG. 1; for synergistic effect on β-galactosidase activity: simultaneous addition with genistein (5 μM), FIG. 2. As to the method: Bradyrhizobium japonicum strain USDA3, harboring plasmid GG4, was used in the experiment. Plasmid GG4 contains a translational fusion between B. japonicum nod Y open-reading frame and lac Z of Escherichia coli.
as §1, §2, §3
The experiment was designed in a randomized complete block design (RCBD) with three replicates. […] Data are shown from the second experiment. Statistical analysis of the data was done with analysis of variance using the Statistical Analysis System computer package (SAS Institute, 1988). Comparisons among treatment means were made with an ANOVA protected LSD at the 0.05 level of statistical significance.

Setting [5] is: 5 μM, control without inducer 522.6 ± 15.9.
The mark [6] stands for this setting: concentrations from 25 to 100 μM.

Where two headings read alike, the source gives them in different places.

For the molecule `O=c1c(-c2ccc(O)cc2)coc2cc(O)cc(O)c12` [GEN, 5,7,4′-trihydroxyisoflavone], the “nod gene induction (β-galactosidase activity)” value in test [1] (setting [5]) turned out to be 2283.8 ± 57.7; in test [1] (10 μM, control 522.6 ± 15.9) it was 2007.6 ± 36.7; in test [1] (25 μM, control 522.6 ± 15.9), 1821 ± 89.2; in test [1] (50 μM, control 522.6 ± 15.9) it was 1121.1 ± 156.9; in test [1] (100 μM, control 522.6 ± 15.9), 491.9 ± 31.6; in test [2] (5 μM) it was 1421.7 ± 93.4. The “nod gene induction (β-galactosidase activity)” value in test [2] (10 μM) was found to be 1320.8 ± 75.99; in test [2] (25 μM), 1383.8 ± 98.22; in test [2] (50 μM), 1160.7 ± 89.7; in test [2] (100 μM), 413.7 ± 7.4; in test [3] (5 μM), 2081.7 ± 148.5; in test [3] (10 μM) it was 1685.1 ± 53.3. Moreover, the “nod gene induction (β-galactosidase activity)” value in test [3] (25 μM) is given as 1286.8 ± 145.5; in test [3] (50 μM), 1154.5 ± 121.1; in test [3] (100 μM), 430.9 ± 80.6; in test [4] (5 μM), 3304 ± 333; in test [4] (10 μM) it was 2500 ± 94; in test [4] (25 μM) it was 2300 ± 219. Moreover, the “nod gene induction (β-galactosidase activity)” value in test [4] (50 μM) stood at 1930 ± 74; in test [4] (100 μM), 406 ± 15. Further, in test [4] (USDA3, β-galactosidase assay), the “optimum concentration for nod gene induction” value is 5 µM.

Consider `CC/C=C\C[C@H]1C(=O)CC[C@@H]1CC(=O)O` [JA, [1R-[1α,2β(Z)]]-3-oxo-2-(pentenyl)cyclopentaneacetic acid], for which the “nod gene induction (β-galactosidase activity)” value is given as 1653.3 ± 105.2 in test [1] (setting [5]); 2079 ± 254.9 in test [1] (10 μM, control 522.6 ± 15.9); 1853.3 ± 314.5 in test [1] (25 μM, control 522.6 ± 15.9); 1884.3 ± 289.3 in test [1] (50 μM, control 522.6 ± 15.9); 796 ± 67.3 in test [1] (100 μM, control 522.6 ± 15.9); 393.5 ± 30.5 in test [2] (5 μM). The “nod gene induction (β-galactosidase activity)” value in test [2] (10 μM) was 447.9 ± 21; in test [2] (25 μM), 420.1 ± 4.6; in test [2] (50 μM), 375.1 ± 35.3; in test [2] (100 μM), 357.7 ± 9.7; in test [3] (5 μM), 540.3 ± 79.3; in test [3] (10 μM) it was 473.7 ± 58.3. Also, the “nod gene induction (β-galactosidase activity)” value in test [3] (25 μM) stood at 496 ± 49.2; in test [3] (50 μM) it was 412.7 ± 22.9; in test [3] (100 μM), 329.5 ± 19.3; in test [4] (5 μM), 368 ± 23; in test [4] (10 μM) it was 362 ± 9; in test [4] (25 μM), 3200 ± 230. The results for the “nod gene induction (β-galactosidase activity)” value in test [4] (50 μM) and in test [4] (100 μM) were 3900 ± 150 and 550 ± 210, respectively. Further, the “expression of nod genes (β-galactosidase assay), in words” value in test [4] (concentrations 10 μM or less) was “showed no activity”; in test [4] (setting [6]) it was “strongly induced the expression of nod genes”. The “synergistic effect on β-galactosidase activity” value in test [4] is “did not result in any synergistic effect”.

With `CC/C=C\CC1C(=O)CCC1CC(=O)OC` (stereo not shown) [MeJA, methyl jasmonate], the “nod gene induction (β-galactosidase activity)” value is reported as 472.2 ± 14.8 in test [1] (setting [5]); 485.3 ± 42.5 in test [1] (10 μM, control 522.6 ± 15.9); 403.3 ± 5.6 in test [1] (25 μM, control 522.6 ± 15.9); 500.1 ± 32 in test [1] (50 μM, control 522.6 ± 15.9); 392.9 ± 22.7 in test [1] (100 μM, control 522.6 ± 15.9); 435.4 ± 39 in test [2] (5 μM). For the same molecule, the “nod gene induction (β-galactosidase activity)” value in test [2] (10 μM) was found to be 418.4 ± 53.1; in test [2] (25 μM), 392.7 ± 2.1; in test [2] (50 μM), 410.4 ± 24.5; in test [2] (100 μM), 386.4 ± 37.3; in test [3] (5 μM), 518 ± 42.6; in test [3] (10 μM) it was 487.1 ± 33. Also, the “nod gene induction (β-galactosidase activity)” value is given as 427 ± 29.4 in test [3] (25 μM); 549.2 ± 81.6 in test [3] (50 μM); 487.9 ± 89.3 in test [3] (100 μM); 448 ± 30 in test [4] (5 μM); 500 ± 61 in test [4] (10 μM); 3000 ± 350 in test [4] (25 μM). The “nod gene induction (β-galactosidase activity)” value in test [4] (50 μM) was 4700 ± 450; in test [4] (100 μM) it was 4500 ± 400. The results for the “expression of nod genes (β-galactosidase assay), in words” value in test [4] (concentrations 10 μM or less) and in test [4] (setting [6]) were “showed no activity” and “strongly induced the expression of nod genes”, respectively. For the same molecule, in test [4], the “synergistic effect on β-galactosidase activity” value was “did not result in any synergistic effect”.

The record behind these values is patent US7262151B2, “Methods and compositions for production of lipo-chito oligosaccharides by rhizobacteria” (McGill University, priority 2001, dated 2007).
